Legend:
[1] = tested on: HeLa cells; experiment: Mitochondrial membrane potential measurement (JC-1 dye, flow cytometry); format: cell-based, human; conditions: 50 μM, 1 h, compared to untreated cells (FIG. 6B)
Procedure: Mitochondrial Membrane Potential Measurement. The mitochondrial membrane potential was determined using the JC-1 dye by flow cytometry. Briefly, the HeLa cells were seeded at a density of 1×10^5 cells/well in 24-well plates for 24 h. The cells were incubated with the same molar concentration (50 μM) of the PEG2k-F7, TPP and CCCP (mitochondrial uncoupler) in the serum-free medium for 1 h. Then, the cells were washed three times by the iced-cold medium to remove the uninternalized materials. The cells were incubated with the JC-1 dye (Biotium) for 15 min at 37° C., followed by the flow cytometry.

[2] = tested on: isolated mitochondria (HeLa cells); experiment: Competitive binding assay on isolated mitochondria (Rh123); set-up: species or system human; conditions: pre-incubation 37° C. 1 h, then Rh123 1 h
Procedure: (§1) Mitochondria Isolation and Binding Affinity Study. The intracellular mitochondria were isolated by the commercial Mitochondria Isolation Kit for Cultured Cells (Thermo Fisher Scientific). Briefly, 2×10^7 HeLa cells were collected by trypsinization and centrifugation (850 g for 2 min). Then, the cells were lysed and the mitochondria were separated from other cell fragments by several washing and centrifugation steps as the manufacture's manual (Option A). The isolated mitochondria were freshly made for the binding affinity study.
For the competitive binding assay, the isolated mitochondria were pre-incubated with triphenylphosphonium (TPP) or PEG2k-F7 at 37° C. for 1 h, and then washed with PBS for three times. The pretreated mitochondria were incubated with Rh123 at 37° C. for additional 1 h. After washing with PBS for three times, the mitochondria were analyzed by the microplate reader.

[3] = Body weight and white blood cell counts of treated 4T1 tumor mice; format: in vivo, BALB/c mice
Procedure: Animal experiments. The subcutaneous (s.c.) syngeneic 4T1 tumor mouse model was established by s.c. implantation of 5×10^6 4T1 cells in the right rear flank of the BALB/c mice. The tumor was measured by a caliper.
To study anticancer activity, the saline, VES, PEG2k-F7, VES-loaded PEG2k-PE micelles and VES-loaded PEG2k-F7 micelles were injected intravenously via the tail at a dose of 20 mg/kg every three days for 3 injections. The tumor size and mouse body weight were monitored every other day. The mice were sacrificed and the blood, major organs and tumors were collected. White blood cells were counted by using a hemocytometry by microscopy.

[4] = tested on: isolated mitochondria (HeLa cells); experiment: Binding affinity study with isolated mitochondria; set-up: species or system human; conditions: 37° C., 1 h, fluorescence
Procedure: as §1
The isolated mitochondria were incubated with the FITC-PEG2k, FITC-PE, FITC-F7, FITC-PEG2k-F7, Rh123, and MITOVIEW™ Green at 37° C. for 1 h, respectively. Then, the mitochondria were washed with PBS for three times and suspended in 200 μL PBS. The mitochondria suspension was observed on a Nikon Ti Eclipse fluorescence microscope. The fluorescence intensity was recorded on the microplate reader.

[5] = tested on: mitochondria; experiment: Quantification of mitochondria-accumulated dyes in living cells; format: cell-based
Procedure: For quantification of the mitochondria-accumulated dyes in living cells, 2×10^7 cells were incubated with the FITC-PE, FITC-F7, or Rh123 at 37° C. for 1 h. After washing with PBS, the (total) cellular fluorescence intensity was measured by microplate reader. Then, the cells were lysed and the mitochondria were separated from other cell fragments by Mitochondria Isolation Kit for Cultured Cells (Option A). The fluorescence intensities of the isolated mitochondria and other cell fragments were measured by the microplate reader. To study the influence of mitochondrial membrane potential on mitochondrial targeting, the cells were pre-incubated with the uncoupler, CCCP (50 μM), for 15 min, and then incubated with the FITC-F7 or Rh123 for 1 h.

## c1ccc(P(c2ccccc2)c2ccccc2)cc1 [TPP, triphenylphosphonium]
[1]
  effect on mitochondrial membrane potential: dramatically depolarized mitochondria
[2]
  decrease of Rh123 binding affinity by pre-incubation: about 50%

## Cc1c(C)c2c(c(C)c1OC(=O)CCC(=O)O)CC[C@@](C)(CCC[C@H](C)CCC[C@H](C)CCCC(C)C)O2 [VES, d-Vitamin E succinate]
[3]; FIG. 13
  white blood cell (WBC) counts: relatively similar to one another
[3]; over 14 days (FIG. 10)
  body weight of mice: stayed relatively the same

## fluorescein isothiocyanate [FITC]
[4]
  binding affinity with isolated mitochondria: did not significantly bind

## rhodamine 123 [Rh123]
[5]; CCCP 50 μM pre-incubation 15 min, then dye 1 h
  effect of CCCP-induced membrane depolarization on mitochondrial accumulation: substantially reduced
[5]; mitochondria isolated from treated cells, 37° C., 1 h
  mitochondrial accumulation: 17.5%

Source: patent US20220152226A1, “INTRACELLULAR DELIVERY AND MITOCHONDRIAL TARGETING BY FLUORINATION” (The Texas A&M University System, priority 2019, published 2022)
